Here are results for 20 molecules from publication PMC10222686, “Synthesis and Molecular Docking Studies of Alkoxy- and Imidazole-Substituted Xanthones as α-Amylase and α-Glucosidase Inhibitors” (Molecules, 2023).

SMILES strings stand for the structures.

One data set relates to α-glucosidase. The data set is described as follows: α-Glucosidase inhibition assay (p-NPG substrate). Type of data set: biochemical, Saccharomyces cerevisiae. The note with it: mean ± SD, n = 4.
For the next data set, the target named is T1, α-amylase (Sus scrofa, UniProt P00690).
T1 construct: purchased Sigma-Aldrich; host or cells: porcine pancreas
T1 sequence (P00690 16-511): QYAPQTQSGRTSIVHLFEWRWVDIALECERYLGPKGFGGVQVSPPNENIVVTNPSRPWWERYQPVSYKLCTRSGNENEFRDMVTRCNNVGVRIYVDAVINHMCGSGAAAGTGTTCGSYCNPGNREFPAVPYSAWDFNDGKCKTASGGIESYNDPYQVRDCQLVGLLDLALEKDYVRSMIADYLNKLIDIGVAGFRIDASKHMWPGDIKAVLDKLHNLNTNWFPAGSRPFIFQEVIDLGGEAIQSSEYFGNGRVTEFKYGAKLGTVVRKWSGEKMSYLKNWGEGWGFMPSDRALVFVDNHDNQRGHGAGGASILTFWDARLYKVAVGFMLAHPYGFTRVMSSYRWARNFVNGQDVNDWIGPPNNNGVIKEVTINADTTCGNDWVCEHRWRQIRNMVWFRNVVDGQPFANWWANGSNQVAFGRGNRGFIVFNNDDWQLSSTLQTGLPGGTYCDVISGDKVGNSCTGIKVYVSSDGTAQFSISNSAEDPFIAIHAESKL
The data set is described as follows: α-Amylase inhibition assay (starch/DNS).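 On all read-outs here: reducing sugar measured by DNS colour at 540 nm, inhibition relative to enzyme reaction lacking test compound, blank without enzyme subtracted for background.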 The data set is classed as biochemical, porcine. The note with it: mean ± SD, n = 4; for inhibition at 100 µM: NI = no inhibition; for IC50: compounds precipitate at 200 µM.

Data set [1] is described as follows: DPPH radical scavenging assay. The note with it: mean ± SD, n = 4. The protocol: The scavenging of free radicals by the synthesized compounds was assessed based on the previously reported DPPH radical assay, with slight modifications. The reaction mixture consisted of 50 µL of compound in DMSO at various concentrations (from 2.5 mM to 0.2 mM) and 150 µL of DPPH solution at 133.33 µM in absolute ethanol. The reaction components were added at a ratio of 1:3 (v/v). The mixture was incubated at 37 °C for 30 min before absorbance was read at 517 nm using a microplate reader (Epoch, BioTek®). Butylhydroxytoulene (BHT) served as the positive control. Scavenging capacity (%) is expressed as the percentage decrease in DPPH. SC% = [(Acontrol − Atest)/Acontrol] × 100 where Acontrol is absorbance of the DPPH solution (control) and Atest is the absorbance of the solution of DPPH and one of the compounds.
On the technique in general: DPPH is a stable violet radical that fades when it is reduced.

Experimental for α-amylase: α-Amylase inhibitory activity was quantified according to the method developed by Chokki et al., with some modifications [65]. […] Finally, 100 µL of 3,5-dinitrosalicylic acid (DNS) was added and heated at 100 °C for 20 min, and absorbance was then read at 540 nm in a microplate reader (Epoch, BioTek®). The reaction system without any test compound was used as the control, and the system without α-amylase served as a blank for correcting background absorbance. The percentage of α-amylase inhibition was calculated for each sample with Equation (2):(2) % inhibition=Control absorbance−sample absorbance/Control absorbance×100
(§1) All measurements were performed in quadruplicate and the values are expressed as the mean ± standard deviation.
Experimental for α-glucosidase: The inhibitory activity of the compounds on α-glucosidase inhibition was quantified according to the method described by Salehi et al., with slight modifications [64]. A reaction was prepared by mixing 20 µL α-glucosidase solution (0.5 unit/mL), 120 µL 0.1 M phosphate buffer (pH 6.9), and 10 µL of the samples at concentrations from 400 µM to 4.0 µM. The solution was incubated in a 96-well microplate at 37 °C for 15 min. The enzymatic reaction was initiated by adding 20 µL of 5 mM p-NPG solution to 0.1 M phosphate buffer (pH 6.9), followed by incubation at 37 °C for 15 min. The reaction was stopped by adding 80 µL of 0.2 M sodium carbonate solution, and absorbance was read at 405 nm in a microplate reader (Epoch®, BioTek Instrument, Winooski, EUA). The reaction system without any test compounds was used as control, whereas the system without α-glucosidase served as blank for correcting background absorbance. The rate of α-glucosidase inhibition exerted by each sample was calculated with Equation (1):(1) % inhibition=Control absorbance−sample absorbance/Control absorbance×100
as §1

As usually defined, the inhibition is the drop in the measured response relative to a control, in per cent. Regarding `C[C@H]1O[C@H](O[C@H]2[C@H](O)[C@@H](O)[C@@H](O[C@H]3[C@H](O)[C@@H](O)C(O)O[C@@H]3CO)O[C@@H]2CO)[C@H](O)[C@@H](O)[C@@H]1N[C@H]1C=C(CO)[C@@H](O)[C@H](O)[C@H]1O` (stereo partly shown) [Acarbose, acarbose, reference compound], the “α-Glucosidase Inhibition (%) at 400 µM” value in the data set with α-glucosidase worked out at 63.18 ± 0.7%. Besides, on α-amylase, 100 µM produced 99.3 ± 0.06% inhibition.

Consider `Cc1cc(C(C)(C)C)c(O)c(C(C)(C)C)c1` [BHT, butylhydroxytoluene, reference compound], for which the “% DPPH Scavenging Activity (2.5 mM)” value in data set [1] is 85.2 ± 3.33 ^A‡ %.

Broadly, the IC50 is the concentration that inhibits the measured activity by half. A high value points to lower potency. On to `COc1cc2oc3ccccc3c(=O)c2cc1O` [Compound 1, 2-Hydroxy-3-methoxy-9H-xanthen-9-one], for which, in the data set with α-glucosidase, the “α-Glucosidase Inhibition (%) at 400 µM” value stood at 26.5 ± 0.81% and the IC50 is > 400 µM. On α-amylase, this molecule gave an inhibition at 100 µM of 98.7 ± 0.11% and an IC50 of 26.5 ± 0.01 µM.

As for `COC(=O)/C(=C/N(C)C)Oc1cc2c(=O)c3ccccc3oc2cc1OC` [Compound 5, Methyl (Z)-3-(dimethylamino)-2-((3-methoxy-9-oxo-9H-xanthen-2-yl)oxy)acrylate], in the data set on α-glucosidase, the “α-Glucosidase Inhibition (%) at 400 µM” value turned out to be 15.2 ± 0.16% and the IC50 is > 400 µM. Moreover, the inhibition at 100 µM on α-amylase is < 0%. Besides, the “% DPPH Scavenging Activity (2.5 mM)” value in data set [1] is listed as 13.9 ± 1.14 ^E,F %.

By melting point is commonly meant the temperature of the solid-liquid transition. Consider `COC(=O)COc1cc2c(=O)c3ccccc3oc2cc1OC` [Compound 6a, Methyl 2-((3-methoxy-9-oxo-9H-xanthen-2-yl)oxy)acetate], for which the melting point was 139 to 140 °C. For the same molecule, in the data set with α-glucosidase, the “α-Glucosidase Inhibition (%) at 400 µM” value worked out at 99.5 ± 0.2% and the IC50 came to 143.6 ± 0.17 µM. In addition, at α-amylase, the inhibition at 100 µM came out at 8.7 ± 0.2% and the IC50 was > 200 µM. For the same molecule, the “% DPPH Scavenging Activity (2.5 mM)” value in data set [1] is recorded as 1.7 ± 0.91 ^H,I %.

`COc1cc2oc3ccccc3c(=O)c2cc1OCC(C)=O` [Compound 6b, 3-Methoxy-2-(2-oxopropoxy)-9H-xanthen-9-one] registered a melting point of 144 to 145 °C. Moreover, in the data set on α-glucosidase, the “α-Glucosidase Inhibition (%) at 400 µM” value is recorded as 9.3 ± 0.1% and the IC50 was > 400 µM. In addition, the “% DPPH Scavenging Activity (2.5 mM)” value in data set [1] is 11.8 ± 1.07 ^F,G %.

In turn, `C=CCOc1cc2c(=O)c3ccccc3oc2cc1OC` [Compound 6d, 2-(Allyloxy)-3-methoxy-9H-xanthen-9-one] showed a melting point of 150 to 151 °C. In the data set with α-glucosidase, the “α-Glucosidase Inhibition (%) at 400 µM” value stood at 22.1 ± 1.04% and the IC50 was > 400 µM. Also, the inhibition at 100 µM against α-amylase was < 0%. Moreover, the “% DPPH Scavenging Activity (2.5 mM)” value in data set [1] is listed as 3.9 ± 0.58 ^H,I %.

On to `C=CCc1c(OCC(=O)c2ccc(Cl)cc2)c(OC)cc2oc3ccccc3c(=O)c12` [Compound 6e, 1-Allyl-2-(2-(4-chlorophenyl)-2-oxoethoxy)-3-methoxy-9H-xanthen-9-one], for which, in the data set with α-glucosidase, the “α-Glucosidase Inhibition (%) at 400 µM” value came to 98.6 ± 0.90% and the IC50 came to 12.8 ± 0.01 µM. On α-amylase, this molecule showed an inhibition at 100 µM of 60.3 ± 0.1% and a half-inhibitory concentration (IC50) of 68.1 ± 0.04 µM. Further, in data set [1], the “% DPPH Scavenging Activity (2.5 mM)” value is on record as 10.4 ± 0.83 ^F,G %.

Turning to `C=CCc1c(O)c(OC)cc2oc3ccccc3c(=O)c12` [Compound 7, 1-Allyl-2-hydroxy-3-methoxy-9H-xanthen-9-one], in the data set with α-glucosidase, the “α-Glucosidase Inhibition (%) at 400 µM” value stood at 75.5 ± 0.50% and the IC50 is 196.4 ± 0.07 µM. In addition, at α-amylase, the inhibition at 100 µM came to 7.8 ± 0.1% and the IC50 is > 200 µM. For the same molecule, the “% DPPH Scavenging Activity (2.5 mM)” value in data set [1] is given as 45.9 ± 2.89 ^B† %.

As to `COc1cc2oc3ccccc3c(=O)c2c2c1OC(C)(C)C=C2` [Compound 8, 5-Methoxy-3,3-dimethylpyrano[3,2-a]xanthen-12(3H)-one], in the data set with α-glucosidase, the “α-Glucosidase Inhibition (%) at 400 µM” value was determined as 38.3 ± 0.04% and the IC50 was > 400 µM. For the same molecule, the inhibition at 100 µM against α-amylase was < 0%. Also, the “% DPPH Scavenging Activity (2.5 mM)” value in data set [1] was 1.9 ± 0.73 ^H,I %.

As for `COc1cc2oc3ccccc3c(=O)c2cc1OCCCCBr` [Compound 9a, 2-(4-Bromobutoxy)-3-methoxy-9H-xanthen-9-one], in the data set with α-glucosidase, the “α-Glucosidase Inhibition (%) at 400 µM” value came out at 97.8 ± 0.3% and 40 ± 0.018 µM corresponded to half-maximal inhibition (IC50). On α-amylase, the inhibition at 100 µM stood at 62.9 ± 0.2% and the IC50 is 73.5 ± 0.04 µM. In addition, in data set [1], the “% DPPH Scavenging Activity (2.5 mM)” value is recorded as 19.5 ± 1.22 ^D %.

Molecule `COc1cc2oc3ccccc3c(=O)c2cc1OCCCCn1ccnc1` [Compound 10a, 2-(4-(1H-imidazol-1-yl)butoxy)-3-methoxy-9H-xanthen-9-one] registered a melting point of 137 to 138 °C. In the data set with α-glucosidase, the “α-Glucosidase Inhibition (%) at 400 µM” value is given as 1.3 ± 0.01% and the IC50 is > 400 µM. Further, the inhibition at 100 µM against α-amylase was < 0%. Further, the “% DPPH Scavenging Activity (2.5 mM)” value in data set [1] was 0.8 ± 0.01 ^I %.

In the case of `COc1cc2oc3ccccc3c(=O)c2cc1OCCCCn1ccnc1-c1ccccc1` [Compound 10b, 3-Methoxy-2-(4-(2-phenyl-1H-imidazol-1-yl)butoxy)-9H-xanthen-9-one], the melting point lay within 132 to 134 °C. In the data set on α-glucosidase, the “α-Glucosidase Inhibition (%) at 400 µM” value worked out at 90.2 ± 0.21% and the IC50 worked out at 212.4 ± 0.1 µM. In addition, on α-amylase, the inhibition at 100 µM amounted to 9.7 ± 0.21% and the IC50 was > 200 µM. The “% DPPH Scavenging Activity (2.5 mM)” value in data set [1] is 12.2 ± 0.08 ^F,G %.

`C=CCc1c(OCCCCn2ccnc2)c(OC)cc2oc3ccccc3c(=O)c12` [Compound 10d, 2-(4-(1H-Imidazol-1-yl)butoxy)-1-allyl-3-methoxy-9H-xanthen-9-one]: in the data set with α-glucosidase, the “α-Glucosidase Inhibition (%) at 400 µM” value turned out to be 2.5 ± 0.01% and the IC50 is > 400 µM. Also, the inhibition at 100 µM at α-amylase was < 0%. The “% DPPH Scavenging Activity (2.5 mM)” value in data set [1] was 5.1 ± 0.08 ^H %.

`C=CCc1c(OCCCCn2ccnc2-c2ccc(Cl)cc2)c(OC)cc2oc3ccccc3c(=O)c12` [Compound 10f, 1-Allyl-2-(4-(2-(4-chlorophenyl)-1H-imidazol-1-yl)butoxy)-3-methoxy-9H-xanthen-9-one] had a melting point of 90 to 92 °C. Besides, in the data set on α-glucosidase, the “α-Glucosidase Inhibition (%) at 400 µM” value worked out at 99.4 ± 0.51% and inhibition was half-maximal at 145.2 ± 0.17 µM (IC50). Besides, on α-amylase, 100 µM produced 93.3 ± 0.12% inhibition and half-maximal inhibition (IC50) was put at 8.7 ± 0.06 µM. In data set [1], the “% DPPH Scavenging Activity (2.5 mM)” value is given as 11.2 ± 1.02 ^F,G %.

`COc1cc2oc3ccccc3c(=O)c2cc1OCC1CO1` (stereo not shown) [Compound 11a, 3-Methoxy-2-(oxiran-2-ylmethoxy)-9H-xanthen-9-one]: the melting point was 143 to 144 °C. In the data set on α-glucosidase, the “α-Glucosidase Inhibition (%) at 400 µM” value worked out at 0.48 ± 0.02% and the half-inhibitory concentration (IC50) is > 400 µM. Besides, the inhibition at 100 µM on α-amylase is < 0%. For the same molecule, the “% DPPH Scavenging Activity (2.5 mM)” value in data set [1] is 19.8 ± 1.04 ^D %.

`C=CCc1c(OCC2CO2)c(OC)cc2oc3ccccc3c(=O)c12` (stereo not shown) [Compound 11b, 1-Allyl-3-methoxy-2-(oxiran-2-ylmethoxy)-9H-xanthen-9-one] returned a melting point of 115 to 116 °C. Besides, in the data set on α-glucosidase, the “α-Glucosidase Inhibition (%) at 400 µM” value is 99.7 ± 0.29% and it took 120 ± 0.03 µM to reach half-maximal inhibition (IC50). For the same molecule, on α-amylase, at 100 µM the inhibition was 7.8 ± 0.5% and the IC50 was > 200 µM. Moreover, in data set [1], the “% DPPH Scavenging Activity (2.5 mM)” value is recorded as 18.4 ± 1.43 ^D %.

As for `COc1cc2oc3ccccc3c(=O)c2cc1OCC(O)Cn1ccnc1` (stereo not shown) [Compound 12a, 2-(2-Hydroxy-3-(1H-imidazol-1-yl)propoxy)-3-methoxy-9H-xanthen-9-one], the melting point lay within 146 to 148 °C. Moreover, in the data set with α-glucosidase, the “α-Glucosidase Inhibition (%) at 400 µM” value was found to be 1.87 ± 0.47% and the IC50 is > 400 µM. Besides, the inhibition at 100 µM at α-amylase was < 0%. Further, the “% DPPH Scavenging Activity (2.5 mM)” value in data set [1] is recorded as 1.1 ± 0.01 ^I %.

As for `COc1cc2oc3ccccc3c(=O)c2cc1OCC(O)Cn1ccnc1-c1ccccc1` (stereo not shown) [Compound 12b, 2-(2-Hydroxy-3-(2-phenyl-1H-imidazol-1-yl)propoxy)-3-methoxy-9H-xanthen-9-one], the melting point lay in the range of 157 to 159 °C. Besides, in the data set with α-glucosidase, the “α-Glucosidase Inhibition (%) at 400 µM” value is 84.9 ± 0.57% and inhibition was half-maximal at 112.8 ± 0.12 µM (IC50). Moreover, on α-amylase, testing at 100 µM gave an inhibition of 8.7 ± 0.81% and the IC50 was > 200 µM. Also, the “% DPPH Scavenging Activity (2.5 mM)” value in data set [1] is 16.3 ± 1.45 ^D,E %.

As for `COc1cc2oc3ccccc3c(=O)c2cc1OCC(O)Cn1ccnc1-c1ccc(Cl)cc1` (stereo not shown) [Compound 12c, 2-(3-(2-(4-Chlorophenyl)-1H-imidazol-1-yl)-2-hydroxypropoxy)-3-methoxy-9H-xanthen-9-one], the melting point was 235 °C (dec.). Moreover, in the data set with α-glucosidase, the “α-Glucosidase Inhibition (%) at 400 µM” value worked out at 97.5 ± 1.78% and inhibition was half-maximal at 210.9 ± 0.33 µM (IC50). Further, at α-amylase, at 100 µM the inhibition was 3.9 ± 0.55% and the IC50 was > 200 µM. Besides, the “% DPPH Scavenging Activity (2.5 mM)” value in data set [1] is 19.0 ± 0.22 ^D %.
